Data on one compound can be found in patent US9133225B2, “Dual targeting anticancer agents” (priority 2013, dated 2015).

In data set [1] the test system is A2780/CP70 cells (CisPt resistant). In words: MTT cytotoxicity assay, A2780/CP70. To be noted: read-out: cytotoxicity IC50; A2780/CP70, ovarian (CisPt resistant); MTT, 48 h treatment; spread in brackets. The text has this:
(§1) (a) Dulbecco's Modified Eagle Medium (DMEM), Dulbecco's phosphate buffered saline (DPBS), fetal bovine serum (FBS) and 0.25% trypsin/EDTA solutions were purchased from Cellgro (Manassas, Va.). Penicillin-streptomycin solutions were purchased from Mediatech (Manassas, Va.). (b) HeLa (CCL-2TM) cells, A549, A2870, A2870/CP70, MCF-7, PC-3, and MRC-5 cells were purchased from American Type Culture Collection (ATCC, Manassas, Va., USA). (c) HCT116 cells were kindly donated by Laura Trudel (MIT). HeLa, A549, MCF-7, and MRC-5 cells were cultured using DMEM supplemented with 10% FBS and 1% penicillin-streptomycin. A2870, A2870/CP70, and PC-3 cells were cultured in RPMI supplemented with 10% FBS and 1% penicillin-streptomycin. HCT116 cells were cultured in McCoy's supplemented with 10% FBS and 1% penicillin-streptomycin. All cell-culture experiments were performed in the aforementioned media in an incubator operating at 37° C. and in the presence of a humidified atmosphere containing 5.0% CO2. Cells were harvested using a 0.25% trypsin/EDTA solution.
(§2) The cytotoxicity of the compounds was assessed by means of the MTT assay (MTT=3-(4,5-dimethyl-2-thiazolyl)-2,5-diphenyl-2H-tetrazolium bromide). Typically, on day one, ˜1×10^3 cells were seeded into 96-well plates in 100 μL media per well. […] The optical density for each well at 550 nm was measured with a microplate reader.
On the technique in general: Formazan colour is commonly taken as a measure of viable cells.

Another data set deals with T1, Bcl-xL-Bax interactions (Homo sapiens, UniProt Q07817).
T1 construct: endogenous in cells; host or cells: A549
Nature of the data set: Co-immunoprecipitation of Bcl-xL, probed for Bax. The data set is classed as cell-based. Conditions: A549 cells, respective IC50 values, 48 h. The procedure:
(§3) α-TOS is known to disrupt Bcl-xL-Bax interactions, activate Bax, and thus mediate mitochondrial centered apoptotic cell death. Co-immunoprecipitation studies were carried out to determine whether the Pt(IV)-α-TOS conjugates could behave in a similar manner. […] Additional immunoblotting studies were carried to determine the effect of Pt(IV)(α-TOS)(OEt) treatment on transcription. […] Overall Pt(IV)(α-TOS)(OEt) was able to (1) downregulate Bcl-xL expression and (2) inhibit the interaction of Bcl-xL with Bax, a prerequisite for mitochondrial dysfunction. The former is inherent to cisplatin but not α-TOS, and the latter was inherent to α-TOS but not cisplatin.
A549 cells (5×10^5 cells) were incubated with test compound for 48 h at 37° C. […] The resultant cell lysate was treated with protein A-agarose bead slurry (50 μL) and centrifuged to remove proteins that bind non-specifically. Anti Bcl-XL antibody (Cell Signalling Technology) was added to the lysate and incubated for 2 h at room temperature. Protein A-agarose bead slurry (50 μL) was added and the mixture was incubated at 4° C. overnight. Centrifugation allowed separation of the immunocomplex, which was washed with cold RIPA buffer (3×500 μL). The immunocomplex was then suspended in SDS-PAGE loading buffer (50 μL) and incubated at 95° C. for 10 min. The solution containing the immunocomplex was isolated by centrifugation and then analysed for Bax content using the immunoblotting analysis protocol described above.

For a further data set, the system named is Bcl-xL. Nature of the data set: Immunoblotting analysis of Bcl-xL expression. The format is cell-based. Conditions: A549 cells. The procedure:
as §3
A549 cells (5×10^5 cells) were incubated with test compound for 48 h at 37° C. Cells were washed with PBS, scraped into SDS-PAGE loading buffer (64 mM Tris-HCl (pH6.8)/9.6% glycerol/2% SDS/5% β-mercaptoethanol/0.01% Bromophenol Blue) and incubated at 95° C. for 10 min. Whole cell lysates were resolved by 4-20% sodium dodecylsulphate polyacylamide gel electrophoresis (SDS-PAGE; 200 V for 1 h) followed by electro transfer to polyvinylidene difluoride membrane, PVDF (350 mA for 1 h). Membranes were blocked in 5% (w/v) non-fat milk in PBST (PBS/0.1% Tween 20) and incubated with the appropriate primary antibodies (Cell Signalling Technology and Santa Cruz). After incubation with horseradish peroxidase-conjugated secondary antibodies (Cell Signalling Technology), immune complexes were detected with the ECL detection reagent (BioRad) and analysed using an Alpha Innotech ChemiImager™ 5500 fitted with a chemiluminescence filter.
In general terms: Immunoblotting shows a protein as a band on a membrane.

The test system of the next data set is all cell lines. Nature of the data set: MTT cytotoxicity assay, across the cell lines. The format is cell-based. Conditions: non-tumorigenic lung fibroblast cells (MRC-5) vs ovarian carcinoma cells (A2780).
Text: as §1, §2

The test system of another data set is MCF-7 cells. Nature of the data set: MTT cytotoxicity assay, MCF-7. Conditions: read-out: cytotoxicity IC50; MCF-7, breast; MTT, 48 h treatment; spread in brackets.
Text: as §1
The cytotoxicity of the compounds was assessed by means of the MTT assay (MTT=3-(4,5-dimethyl-2-thiazolyl)-2,5-diphenyl-2H-tetrazolium bromide). Typically, on day one, ˜1×10^3 cells were seeded into 96-well plates in 100 μL media per well. The last row of the plate was left empty as a control for background absorption. The cells were allowed to grow for 24 h in the incubator at 37° C. On day two, a series of drug dilutions in growth media were prepared immediately prior to cell treatment. The media in the wells of the 96 plates were replaced with 100 μL of growth media containing appropriate drug concentrations. The cells were treated for 48 h at 37° C. in the incubator. On day four, a stock solution of MTT (5 mg/mL in PBS buffer) was diluted with media so that, when 100 μL of the media was added to each well, 10 μL of MTT stock was applied. […] The optical density for each well at 550 nm was measured with a microplate reader.

Molecules are shown by their SMILES.

T1 sequence (Q07817 whole entry): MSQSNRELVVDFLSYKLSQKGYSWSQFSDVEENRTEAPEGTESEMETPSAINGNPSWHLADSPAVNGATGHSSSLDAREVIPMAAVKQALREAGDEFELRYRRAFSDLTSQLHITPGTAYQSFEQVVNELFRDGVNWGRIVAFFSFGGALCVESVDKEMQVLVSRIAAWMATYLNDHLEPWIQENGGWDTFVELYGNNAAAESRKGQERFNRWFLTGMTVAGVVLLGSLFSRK

Broadly, the IC50 is the concentration at which inhibition is half-maximal. Consider `CC[O][Pt]([NH2])([NH2])([Cl])([Cl])[O]C(=O)CCC(=O)Oc1c(C)c(C)c2c(c1C)CCC(C)(CCCC(C)CCCC(C)CCCC(C)C)O2` (stereo not drawn) [Pt(IV)(α-TOS)(OEt)], for which the values for the 50% inhibitory concentration (IC50) (in data set [1]; with MCF-7 cells) were 1.1 µM and 5.9 µM, respectively. Besides, at Bcl-xL-Bax interactions, the “Bcl-xL-Bax interaction (Bax associated to the Bcl-xL immunoprecipitate)” value is “reduced Bcl-xL-Bax interactions”. Further, the Bcl-xL expression result in the data set on Bcl-xL is recorded as “induced a reduction in Bcl-xL expression”. Also, the “reduction in toxicity for MRC-5 compared to A2780” value in the data set with all cell lines is 265 fold.
